According to patent US9247759B2, “Identification of human T2R receptors that respond to bitter compounds that elicit the bitter taste in compositions, and the use thereof in assays to identify compounds that inhibit (block) bitter taste in compositions and use thereof” (SENOMYX, INC., priority 2007, dated 2016):
Read-outs that look alike come from different tables or passages of the source.

Columns and labels:
hT2R14 = hT2R14 (Homo sapiens (Human), UniProt Q9NYV8); experiment: hT2R14 antagonist high-throughput FLIPR assay, stable cell line with G16g44, agonist aristolochic acid; type: cell-based; conditions: Table C; read-out: hT2R14 IC50
hT2R14, sequence (Q9NYV8 whole entry): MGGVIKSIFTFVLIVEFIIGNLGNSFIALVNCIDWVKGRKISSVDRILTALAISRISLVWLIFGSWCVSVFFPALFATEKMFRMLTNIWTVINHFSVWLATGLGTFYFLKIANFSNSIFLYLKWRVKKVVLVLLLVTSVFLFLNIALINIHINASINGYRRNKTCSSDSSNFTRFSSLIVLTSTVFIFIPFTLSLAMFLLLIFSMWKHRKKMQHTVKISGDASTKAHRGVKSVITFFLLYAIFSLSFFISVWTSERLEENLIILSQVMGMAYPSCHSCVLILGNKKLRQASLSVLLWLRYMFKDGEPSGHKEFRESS
Method: The inventors also used the automated fluorimetric […] system FLIPR using a slightly different protocol. A HEK293 cell line stably expressing G16gust44 was transfected with a hT2R expression plasmid, 24 hours later, the cells are loaded and analyzed on FLIPR.
After a ligand is identified for a particular hT2R, a HEK293 cell line stably expressing both the hT2R and G16gust44 are generated, facilitating future screening assays to identify other ligands that activate the particular hT2R or which modulate (block or enhance) the activation of this hT2R by another bitter ligand such as a bitter compound contained in coffee. This avoids the need for transient transfection.
To identify antagonists, cell lines stably expressing hT2R8 and hT2R14, respectively, together with the promiscuous chimeric G16g44 protein were generated as described in previous patent applications. A high-throughput assay was established using the stable cell lines and FLIPR (Fluorescent Imaging Plate Reader). An agonist of hT2R8 or hT2R14 was used to activate the receptors up to 70-80% of their respective maximal activity. For hT2R8, the agonist used was andrographolide (200 […]); for hT2R14, it was aristolochic acid (3 μM). To identify antagonists, compounds with diverse chemical structures were added together with the agonist.

hT2R8 = hT2R8 (Homo sapiens (Human), UniProt Q9NYW2); experiment: hT2R8 antagonist high-throughput FLIPR assay, stable cell line with G16g44, agonist andrographolide; type: cell-based
hT2R8, sequence (Q9NYW2 whole entry): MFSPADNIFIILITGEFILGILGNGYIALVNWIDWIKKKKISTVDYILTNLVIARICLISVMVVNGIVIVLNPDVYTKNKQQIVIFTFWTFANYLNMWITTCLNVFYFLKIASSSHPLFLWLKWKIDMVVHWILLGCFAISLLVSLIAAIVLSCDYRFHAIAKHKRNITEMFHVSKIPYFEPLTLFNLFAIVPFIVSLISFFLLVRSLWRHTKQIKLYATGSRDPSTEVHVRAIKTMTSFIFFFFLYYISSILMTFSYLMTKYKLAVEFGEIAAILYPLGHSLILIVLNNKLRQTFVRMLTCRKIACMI
In short: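 Antagonist screen: compounds co-applied with agonist andrographolide at 200 μM, a dose giving 70–80% of maximal hT2R8 activation. Fluorescence measured by FLIPR in a stable HEK293 line expressing both hT2R8 and the promiscuous G16g44 protein.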

[1] = table after Example 10-97, read-out: hT2R8 IC50
[2] = read-out: IC50 on hT2R8 bitter receptor
[3] = unit uM, read-out: IC50 on hT2R08 bitter receptor

| Structure (SMILES) | IC50 (hT2R8; Table A, read-out: hT2R8 IC50) [µM] | IC50 (hT2R8; [1]) [µM] | IC50 (hT2R8; [2]) [µM] | also measured |
| --- | --- | --- | --- | --- |
| CCOC(=O)C1CCC(CN(Cc2ccccc2)S(=O)(=O)c2ccc(Cl)cc2)CC1 (centres unmarked) [Example 5-119, ethyl 4-((N-benzyl-4-chlorophenylsulfonamido)methyl) cyclohexanecarboxylate] | – | – | – | IC50 (hT2R14): 672 nM |
| Cc1ccc(CN(CC2CCC(C(=O)O)CC2)S(=O)(=O)c2ccc(C)cc2)cc1 (centres unmarked) [Example 5-126, 4-((4-methyl-N-(4-methylbenzyl)phenylsulfonamido)methyl) cyclohexanecarboxylic acid] | – | – | – | IC50 (hT2R14): 109 nM |
| Cc1nc2cc(C(=O)Nc3cnn(Cc4c(C)noc4C)c3)ccc2[nH]1 [Example 4-79, N-(1-((3,5-dimethylisoxazol-4-yl)methyl)-1H-pyrazol-4-yl)-2-methyl-1H-benzo[d]imidazole-5-carboxamide] | 1 | – | – | – |
| COc1ccccc1NC(=S)Nc1cnn(Cc2c(C)noc2C)c1 [Example 4-106, 1-(1-((3,5-dimethylisoxazol-4-yl)methyl)-1H-pyrazol-4-yl)-3-(2-methoxyphenyl)thiourea] | 2.61 | – | – | – |
| Cc1noc(C)c1Cn1cc(NC(=O)Cc2ccoc2)cn1 [Example 4-58, N-(1-((3,5-dimethylisoxazol-4-yl)methyl)-1H-pyrazol-4-yl)-2-(furan-3-yl)acetamide] | 8.66 | – | – | – |
| Cc1noc(C)c1Cn1cc(NC(=S)Nc2ccccc2)cn1 [Example 4-112, 1-(1-((3,5-dimethylisoxazol-4-yl)methyl)-1H-pyrazol-4-yl)-3-phenylthiourea] | 2.49 | – | – | – |
| COc1ccc(C(=O)Nc2cnn(Cc3c(C)noc3C)c2)cc1 [Example 4-17, N-(1-((3,5-dimethylisoxazol-4-yl)methyl)-1H-pyrazol-4-yl)-4-methoxybenzamide] | 0.26 | – | – | – |
| Cc1noc(C)c1Cn1cc(NC(=O)c2cccc(C#N)c2)cn1 [Example 4-10, 3-cyano-N-(1-((3,5-dimethylisoxazol-4-yl)methyl)-1H-pyrazol-4-yl)benzamide] | – | – | 0.2 | – |
| CO[C@H](C(=O)Nc1cnn(Cc2c(C)noc2C)c1)c1ccccc1 [Example 4-67, (S)-N-(1-((3,5-dimethylisoxazol-4-yl)methyl)-1H-pyrazol-4-yl)-2-methoxy-2-phenylacetamide] | 8.6 | – | – | – |
| COc1cccc(C(=O)Nc2nnn(Cc3c(C)noc3C)n2)c1 [Example 4-114, N-(2-((3,5-dimethylisoxazol-4-yl)methyl)-2H-tetrazol-5-yl)-3-methoxybenzamide] | 1.87 | – | – | – |
| CCOc1cccc(C(=O)Nc2cnn(Cc3c(C)noc3C)c2)c1 [Example 4-59, N-(1-((3,5-dimethylisoxazol-4-yl)methyl)-1H-pyrazol-4-yl)-3-ethoxybenzamide] | 0.22 | – | – | – |
| Cc1noc(C)c1Cn1cc(NC(=O)c2cc(Cl)c3c(c2)OCCO3)cn1 [Example 4-91, 8-chloro-N-(1-((3,5-dimethylisoxazol-4-yl)methyl)-1H-pyrazol-4-yl)-2,3-dihydrobenzo[b][1,4]dioxine-6-carboxamide] | 0.1 | – | – | – |
| COc1cc(C(=O)Nc2cnn(Cc3c(C)noc3C)c2)cc2c1OC(C)O2 (centres unmarked) [Example 4-94, N-(1-((3,5-dimethylisoxazol-4-yl)methyl)-1H-pyrazol-4-yl)-7-methoxy-2-methylbenzo[d][1,3]dioxole-5-carboxamide] | – | – | 0.7 | – |
| COc1cccc(CC(=O)Nc2cnn(Cc3c(C)noc3C)c2)c1OC [Example 4-31, 2-(2,3-dimethoxyphenyl)-N-(1-((3,5-dimethylisoxazol-4-yl)methyl)-1H-pyrazol-4-yl)acetamide] | 0.8 | – | – | – |
| COc1cccc(CCN2C(=O)N(c3cnn(Cc4c(C)noc4C)c3)C(=O)C2(C)C)c1 [Example 12-60, 3-(1-((3,5-dimethylisoxazol-4-yl)methyl)-1H-pyrazol-4-yl)-1-(3-methoxyphenethyl)-5,5-dimethylimidazolidine-2,4-dione] | – | – | – | IC50 (hT2R8; table after Example 12-37, read-out: hT2R8 IC50): 0.25 µM |
| Cc1noc(C)c1Cn1cc(NC(=O)c2cccc3nccnc23)cn1 [Example 4-76, N-(1-((3,5-dimethylisoxazol-4-yl)methyl)-1H-pyrazol-4-yl)quinoxaline-5-carboxamide] | 1.7 | – | – | – |
| COC(C(=O)Nc1cnn(Cc2c(C)noc2C)c1)c1ccccc1 (centres unmarked) [Example 4-43, N-(1-((3,5-dimethylisoxazol-4-yl)methyl)-1H-pyrazol-4-yl)-2-methoxy-2-phenylacetamide] | 3.43 | – | – | – |
| COc1cc(OC)cc(C(=O)Nc2cnn(Cc3c(C)noc3C)c2)c1 [Example 4-18, N-(1-((3,5-dimethylisoxazol-4-yl)methyl)-1H-pyrazol-4-yl)-3,5-dimethoxybenzamide] | 0.28 | – | – | – |

Further lines, with some results ahead:

| IC50 (hT2R8; Table A, read-out: hT2R8 IC50) [µM] | IC50 (hT2R8; [1]) [µM] | IC50 (hT2R8; [2]) [µM] | Structure (SMILES) | also measured |
| --- | --- | --- | --- | --- |
| – | 3.43 | – | Cc1noc(C)c1Cn1cc(N2CCCN(Cc3ccccc3)C2=O)cn1 [Example 9-5] | – |
| – | 0.062 | 0.06 | CCCn1c(=O)n(-c2cnn(Cc3c(C)noc3C)c2)c(=O)n1Cc1ccccc1 [Example 10-93, 1-benzyl-4-(1-((3,5-dimethylisoxazol-4-yl)methyl)-1H-pyrazol-4-yl)-2-propyl-1,2,4-triazolidine-3,5-dione] | – |
| – | 0.044 | 0.04 | COc1ccc(CCN2CC(=O)N(c3cnn(Cc4c(C)noc4C)c3)C2=O)cc1 [Example 10-79, 3-(1-((3,5-dimethylisoxazol-4-yl)methyl)-1H-pyrazol-4-yl)-1-(4-methoxyphenethyl)imidazolidine-2,4-dione] | – |
| – | – | 0.04 | Cc1noc(C)c1Cn1cc(N2C(=O)[C@H](CO)N(Cc3cccc(O)c3)C2=O)cn1 [Example 12-9, (S)-3-(1-((3,5-dimethylisoxazol-4-yl)methyl)-1H-pyrazol-4-yl)-1-(3-hydroxybenzyl)-5-(hydroxymethyl)imidazolidine-2,4-dione] | – |
| – | – | 3 | Cc1noc(C)c1Cn1cc(N2C(=O)NC(CO)C2=O)cn1 (centres unmarked) [Example 10-97, 3-(1-((3,5-dimethylisoxazol-4-yl)methyl)-1H-pyrazol-4-yl)-5-(hydroxymethyl)imidazolidine-2,4-dione] | – |
| – | 0.019 | – | Cc1cccc(CN2CC(=O)N(c3cnn(Cc4c(C)noc4C)c3)C2=O)c1 [Example 10-26, 3-(1-((3,5-dimethylisoxazol-4-yl)methyl)-1H-pyrazol-4-yl)-1-(3-methylbenzyl)imidazolidine-2,4-dione] | IC50 (hT2R8; [3]): 0.02 µM |
| – | 1.28 | 1.3 | Cc1noc(C)c1Cn1cc(N2C(=O)NC(C)C2=O)cn1 (centres unmarked) [Example 10-41, 3-(1-((3,5-dimethylisoxazol-4-yl)methyl)-1H-pyrazol-4-yl)-5-methylimidazolidine-2,4-dione] | – |
| – | 1.77 | 1.7 | COc1cccc(CNC(=O)CC2NC(=O)N(c3cnn(Cc4c(C)noc4C)c3)C2=O)c1 (centres unmarked) [Example 10-50, 2-(1-(1-((3,5-dimethylisoxazol-4-yl)methyl)-1H-pyrazol-4-yl)-2,5-dioxoimidazolidin-4-yl)-N-(3-methoxybenzyl)acetamide] | – |
| – | 0.058 | – | Cc1noc(C)c1Cn1cc(N2C(=O)CN(Cc3cccc(F)c3)C2=O)cn1 [Example 10-27, 3-(1-((3,5-dimethylisoxazol-4-yl)methyl)-1H-pyrazol-4-yl)-1-(3-fluorobenzyl)imidazolidine-2,4-dione] | IC50 (hT2R8; [3]): 0.06 µM |
| – | – | 0.13 | Cc1noc(C)c1Cn1cc(N2C(=O)N(Cc3cccc(O)c3)C(C)(CO)C2=O)cn1 (centres unmarked) [Example 12-10, 3-(1-((3,5-dimethylisoxazol-4-yl)methyl)-1H-pyrazol-4-yl)-1-(3-hydroxybenzyl)-5-(hydroxymethyl)-5-methylimidazolidine-2,4-dione] | – |
| – | 1.44 | 1.1 | Cc1noc(C)c1Cn1cc(N2C(=O)NC(C(C)C)C2=O)cn1 (centres unmarked) [Example 10-62, 3-(1-((3,5-dimethylisoxazol-4-yl)methyl)-1H-pyrazol-4-yl)-5-isopropylimidazolidine-2,4-dione] | – |
| – | – | 1.5 | Cc1noc(C)c1Cn1cc(-n2c(=O)[nH]c3ccccc3c2=O)cn1 [Example 9-4, 3-(1-((3,5-dimethylisoxazol-4-yl)methyl)-1H-pyrazol-4-yl)quinazoline-2,4(1H,3H)-dione] | – |
| – | – | 0.02 | COc1ccc(CN2C(=O)N(c3cnn(Cc4c(C)noc4C)c3)C(=O)C23CC3)cc1OC [Example 12-13, 4-(3,4-dimethoxybenzyl)-6-(1-((3,5-dimethylisoxazol-4-yl)methyl)-1H-pyrazol-4-yl)-4,6-diazaspiro[2.4]heptane-5,7-dione] | – |
| – | 1.8 | 1.8 | Cc1noc(C)c1Cn1cc(N2C(=O)CN(Cc3cccc(C(=O)O)c3)C2=O)cn1 [Example 10-8, 3-((3-(1-((3,5-dimethylisoxazol-4-yl)methyl)-1H-pyrazol-4-yl)-2,4-dioxoimidazolidin-1-yl)methyl)benzoic acid] | – |
| – | 0.257 | 0.09 | Cc1noc(C)c1Cn1cc(N2C(=O)CN(Cc3ccccc3)C2=O)cn1 [Example 10-53, 1-benzyl-3-(1-((3,5-dimethylisoxazol-4-yl)methyl)-1H-pyrazol-4-yl)imidazolidine-2,4-dione] | – |
| – | 0.609 | 0.68 | Cc1noc(C)c1Cn1cc(N2C(=O)CN(Cc3ccccn3)C2=O)cn1 [Example 10-54, 3-(1-((3,5-dimethylisoxazol-4-yl)methyl)-1H-pyrazol-4-yl)-1-(pyridin-2-ylmethyl)imidazolidine-2,4-dione] | – |
